Reference: US11633379B2, “Methods of inhibiting PCSK9” (TRUSTEES OF DARTMOUTH COLLEGE, priority 2017, dated 2023)
Where two headings read alike, the source gives them in different places.

Experiments:
[1] = tested on: albumin; experiment: Intracellular albumin, HepG2 (ELISA); assay type: cell-based, human
Description: After 24 hours media was aspirated, cells were washed with HBSS followed by protein extraction using commercially available RIPA buffer (SIGMA-ALDRICH, catalog #20-188). Protein extracts (5 μgr) were used for albumin detection using commercially available ELISA kit (ABCAM, catalog #108788) following the manufacturer instruction.

[2] = target: recombinant PCSK9 (Homo sapiens, UniProt Q8NBP7); experiment: PCSK9 detection interference (ELISA); details: FIG. 5A
Chain of recombinant PCSK9 (Q8NBP7 153-692): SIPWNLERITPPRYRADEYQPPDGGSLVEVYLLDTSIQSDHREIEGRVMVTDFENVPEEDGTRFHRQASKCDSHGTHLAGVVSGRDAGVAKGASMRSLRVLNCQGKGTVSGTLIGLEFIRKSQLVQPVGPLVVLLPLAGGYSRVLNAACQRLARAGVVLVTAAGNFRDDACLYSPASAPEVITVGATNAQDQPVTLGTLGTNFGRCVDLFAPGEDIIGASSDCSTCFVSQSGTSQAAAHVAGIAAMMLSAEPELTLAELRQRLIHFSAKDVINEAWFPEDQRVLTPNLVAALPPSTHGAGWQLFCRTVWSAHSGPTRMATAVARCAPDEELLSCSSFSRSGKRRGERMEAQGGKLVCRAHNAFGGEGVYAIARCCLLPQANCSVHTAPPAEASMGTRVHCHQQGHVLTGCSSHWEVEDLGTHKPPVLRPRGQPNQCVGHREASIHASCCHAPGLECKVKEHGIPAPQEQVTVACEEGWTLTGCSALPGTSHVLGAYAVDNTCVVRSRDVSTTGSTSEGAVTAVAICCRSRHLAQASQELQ
Description: To study whether 34 directly interfere with PCSK9 detection we used recombinant PCSK9 (30 ng/ml) was mixed with increasing concentration (0.2-50 μM) of 34 in 0.1% DMSO followed by detection of PCSK9 using commercially available ELISA kit (MBL-international, catalog # CY-8079) following the manufacturer instruction.

[3] = tested on: PCSK9; experiment: Intracellular PCSK9 protein in HepG2 cells (western blot); assay type: cell-based, human; details: FIG. 1A
Description: To study whether 34 affect intracellular PCSK9 levels we used 1×10^6 HepG2 cells in 6-well culture plates, followed by incubation with media+0.1% DMSO or increasing concentration (0.2-50 uM) of 34 in 0.1% DMSO for 24 hours. After 24 hours media was aspirated, cells were washed with HBSS followed by protein extraction using commercially available RIPA buffer (SIGMA-ALDRICH, catalog #20-188). Protein extracts (20 μg) were used for immunodetection of intracellular PCSK9 (western blot analysis) with a commercially available primary antibody against PCSK9 (MBL-international, catalog # CY-1037), HRP-conjugated secondary antibody (SIGMA-ALDRICH, catalog #12-348) visualized using an enhanced chemiluminescence (ECL) solution (Cumaric acid, Luminol and hydrogen peroxide), developed in a LiCore imager.

[4] = tested on: apoE; experiment: Intracellular apoE, HepG2 (western blot); assay type: cell-based, human; details: 40 hours of incubation, HepG2, FIG. 7C
Description: […] […] Protein extracts (25 μgr) were used for immunodetection of intracellular […] (western blot analysis) with a commercially available primary antibody against apoE (ABCAM, catalog #1906), HRP-conjugated secondary antibody (SIGMA-ALDRIC, catalog # A5420) visualized using an enhanced chemiluminescence (ECL) solution (Cumaric acid, Luminol and hydrogen peroxide), developed in a LiCore imager.

[5] = tested on: AST; set-up: species or system mice; details: mouse, in vivo, po
Description: 1) Single-dose experiments: mice were administered (oral gavage or intra-peritoneal injection) with 200 μl of 34 (30 mg/kg or 100 mg/kg) in 0.1% Tween 80+1% hydroxyethyl cellulose (HEC) in buffered (PBS pH7.4) solution. After 34 administration, 50-70 μl of blood was collected from the retro-orbital plexus every 4-6 hours (for a total of 24 hours). Blood was left to clot at room temperature for 20 min, followed by serum separation (spin at 1000 g for 10 min). Serum was analyzed as specified in the “Serum analyses” section. 2) Daily dosage experiments: mice were administered daily oral gavage with 200 μl of 34 (100 mg/kg) in 0.1% Tween80+1% hydroxyethyl cellulose (HEC) in buffered (PBS pH7.4) solution. 50-70 μl of blood was collected from the retro-orbital plexus on day 3 and day 5 after 34 administration, on day 5 mice were euthanized and liver were collected and analyzed as mentioned below under the “Liver analyses” section. Blood was left to clot at room temperature for 20 min, followed by serum separation (spin at 1000 g for 10 min). Serum was analyzed as described below: AST activity—using commercially available activity assay (SIGMA-ALDRICH, catalog # MAK055) following the manufacturer instruction.

[6] = target: T1, PCSK9 binding to LDLR (EGF-A domain) (Homo sapiens, UniProt Q8NBP7); experiment: PCSK9-LDLR interaction ELISA; details: FIG. 5B
T1 construct: purchased MBL-international CY-8150
T1 sequence (Q8NBP7 153-692): as above
T1 sequence (Q8NBP7 31-152 partner limits assumed): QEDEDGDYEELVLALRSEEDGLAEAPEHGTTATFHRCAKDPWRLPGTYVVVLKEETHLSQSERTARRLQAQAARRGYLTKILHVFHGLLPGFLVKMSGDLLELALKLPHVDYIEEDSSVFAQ
Description: To study whether increasing concentrations of 34 (0.2-50 μM) directly interfere with PCSK9-LDLR interaction we used a commercially available ELISA kit (MBL-international, catalog # CY-8150) following the manufacturer instruction.

[7] = tested on: albumin; experiment: Albumin secretion, HepG2 (ELISA); assay type: cell-based, human
Description: The collected media was analyzed for albumin levels using commercially available ELISA kit (ABCAM, catalog #108788) following the manufacturer instruction.

[8] = tested on: PCSK9 mRNA; experiment: PCSK9 transcription in HepG2 cells (real-time PCR); assay type: cell-based, human; details: FIG. 1B
Description: To study whether 34 affect PCSK9 mRNA levels we used 1×10^6 HepG2 cells in 6-well culture plates, followed by incubation with media+0.1% DMSO or increasing concentration (0.2-50 μM) of 34 in 0.1% DMSO for 24 hours. After 24 hours media was aspirated, cells were washed with HBSS followed by RNA extraction kit (RNeasy, QIAGEN cat #74-104). mRNA was reversed transcribed to cDNA using commercially available kit (ThermoFisher, cat #4368814) and analyzed using real-time PCR for PCSK9 transcript levels using the relative expression method known as delta-delta CT.

[9] = tested on: PCSK9; experiment: Plasma PCSK9 levels in mice (ELISA); assay type: in vivo
Description: 1) Single-dose experiments: mice were administered (oral gavage or intra-peritoneal injection) with 200 μl of 34 (30 mg/kg or 100 mg/kg) in 0.1% Tween 80+1% hydroxyethyl cellulose (HEC) in buffered (PBS pH7.4) solution. After 34 administration, 50-70 μl of blood was collected from the retro-orbital plexus every 4-6 hours (for a total of 24 hours). Blood was left to clot at room temperature for 20 min, followed by serum separation (spin at 1000 g for 10 min). Serum was analyzed as specified in the “Serum analyses” section.
2) Daily dosage experiments: mice were administered daily oral gavage with 200 μl of 34 (100 mg/kg) in 0.1% Tween80+1% hydroxyethyl cellulose (HEC) in buffered (PBS pH7.4) solution. 50-70 μl of blood was collected from the retro-orbital plexus on day 3 and day 5 after 34 administration, on day 5 mice were euthanized and liver were collected and analyzed as mentioned below under the “Liver analyses” section. Blood was left to clot at room temperature for 20 min, followed by serum separation (spin at 1000 g for 10 min). Serum was analyzed as described below:
PCSK9 levels—using commercially available ELISA kit (MBL-international, catalog # CY-8079) following the manufacturer instruction.

[10] = 20 μM and 50 μM, HepG2, result of increased cell death

For `CC(=O)Oc1ccc(C2CC3(CCCCC3)c3c2[nH]c2ccccc32)cc1` (centres unmarked) [Compound 34], which intracellular albumin [1, 10] is on record?
The intracellular albumin was “Reduction in secreted and intracellular albumin”.

And the intracellular albumin ([1]; up to 10 μM, 40 hours of incubation, HepG2, FIG. 6B)?
Its intracellular albumin is “no changes in secreted or intracellular albumin”.

And the “interference with PCSK9 detection” value [2]?
The value was “does not interfere with PCSK9 detection”.

And the “intracellular PCSK9, pro-protein and mature forms” value [3]?
The value was “reduces levels of both the pro-protein and the mature forms of PCSK9 in a dose-dependent manner”.

And the “intracellular apoE levels” value [4]?
The value was “no changes in secreted, intracellular, or mRNA levels of apoE”.

What about the “liver function (measured as AST activity)” value ([5]; 100 mg/kg) of the same compound?
The value was “not affected”.

What about the “liver function (measured as AST activity)” value ([5]; 100 mg/kg/day) of the same compound?
Its value is “not affected”.

What about the “PCSK9 binding to LDLR (EGF-A domain)” value [6] of the same compound?
The value was “does not affect PCSK9 binding to LDLR (EGF-A domain)”.

And the secreted albumin [7, 10]?
Its secreted albumin is “Reduction in secreted and intracellular albumin”.

What about the secreted albumin ([7]; up to 10 μM, 40 hours of incubation, HepG2, FIG. 6A) of the same compound?
Its secreted albumin is “no changes in secreted or intracellular albumin”.

And the “PCSK9 mRNA levels” value [8]?
Its value is “reduces levels of PCSK9 mRNA in a dose-dependent manner”.

And the “individual mice with a drop in PCSK9 levels” value ([9]; 5-day oral 100 mg/kg/day, FIG. 12B)?
The value was “all mice receiving compound 34 presented with a drop in PCSK9 levels”.

And the “drop in plasma PCSK9” value ([9]; 5-day oral 100 mg/kg/day, day 5, FIG. 12A)?
The value was 36.2%.

And the “maximal drop in plasma PCSK9” value ([9]; single 30 mg/kg intraperitoneal (IP) injection, 4 hours after administration, FIG. 9)?
The value was 43.2%.

And the “maximal drop in plasma PCSK9” value ([9]; single 30 mg/kg oral gavage, 4 hours after administration, FIG. 9)?
The value was 22.5%.

What about the “time after administration at which PCSK9 levels are back to baseline” value (“time after administration” below) ([9]; single 30 mg/kg, IP or oral, FIG. 9) of the same compound?
The value was 20 h.

And the “maximal drop in plasma PCSK9” value ([9]; single oral 30 mg/kg, 6 hours after administration, FIG. 10A)?
The value was 28.5%.

What about the “time after administration” value ([9]; single oral 30 mg/kg, FIG. 10A) of the same compound?
The value was 18 h.

And the “maximal drop in plasma PCSK9” value ([9]; single oral 100 mg/kg, 6 hours after administration, FIG. 10B)?
The value was 33.4%.

And the “time after administration” value ([9]; single oral 100 mg/kg, FIG. 10B)?
Its value is 24 h.
